Results: US7935826B2, “Insecticidal N-substituted (heteroaryl)cycloalkyl sulfoximines” (Dow AgroSciences LLC, priority 2006, dated 2011)

Experiments:
Type in all cases: in vivo
[1] = tested on: Green Peach Aphid (Myzus persicae); experiment: Insecticidal test for green peach aphid in foliar spray assay on cabbage; set-up: key: A: 90-100; B: 80-89; C: 70-79; D: 60-69; E: 50-59; F: Less than 50; G: Inactive; H: Not tested; details: Corrected % Control (Abbott), three days after spray
Protocol: Insecticidal Test for Green Peach Aphid (Myzus persicae) in Foliar Spray Assay Cabbage seedlings grown in 3-inch pots, with 2-3 small (3-5 cm) true leaves, were used as test substrate. The seedlings were infested with 20-50 green peach aphids (wingless adult and nymph) 2-3 days prior to chemical application. Four seedlings were used for each treatment. Compounds (2 mg) were dissolved in 2 ml of acetone:methanol (1:1) solvent, forming stock solutions of 1000 ppm. The stock solutions were diluted 5× with 0.025% Tween 20 in H2O to obtain a solution at 200 ppm. Lower concentrations (50, 12.5, 3.125 and 0.781 ppm) were prepared by making sequential 4× dilutions from the 200 ppm solution with a diluent consisting 80 parts of 0.025% Tween 20 in H2O and 20 parts of acetone:methanol (1:1). A hand-held Devilbiss sprayer was used for spraying a solution to both sides of cabbage leaves until runoff. Reference plants (solvent check) were sprayed with the diluent only. Treated plants were held in a holding room for three days at approximately 23° C. and 40% RH prior to grading. Evaluation was conducted by counting the number of live aphids per plant under a microscope. Insecticidal activity was measured by using Abbott's correction formula: Corrected % Control=100*(X−Y)/X • where X=No. of live aphids on solvent check plants • Y=No. of live aphids on treated plants

[2] = tested on: Cotton Aphid (Aphis gossypii); experiment: Insecticidal test for cotton aphid in foliar spray assay on squash; set-up: key: A: 90-100; B: 80-89; C: 70-79; D: 60-69; E: 50-59; F: Less than 50; G: Inactive; H: Not tested; details: Corrected % Control (Abbott), 3 days after spray
Protocol: Insecticidal Test for Cotton Aphid (Aphis gossypii) in Foliar Spray Assay Squash with fully expanded cotyledon leaves were trimmed to one cotyledon per plant and infested with cotton aphid (wingless adult and nymph) 1 day prior to chemical application. Each plant was examined before chemical application to ensure proper infestation (ca. 30-70 aphids per plant). Compounds (2 mg) were dissolved in 2 ml of acetone:methanol (1:1) solvent, forming stock solutions of 1000 ppm. The stock solutions were diluted 5× with 0.025% Tween 20 in H2O to obtain a solution at 200 ppm. Lower concentrations (50, 12.5, 3.125, 0.781 and 0.195 ppm) were prepared by making sequential 4× dilutions from the 200 ppm solution with a diluent consisting 80 parts of 0.025% Tween 20 in H2O and 20 parts of acetone:methanol (1:1). A hand-held Devilbiss sprayer was used to apply the spray solutions until runoff to both sides of the squash cotyledon leaves. Four plants (4 replications) were used for each concentration of each compound. Reference plants (solvent check) were sprayed with the diluent only. Treated plants were held in a holding room for 3 days at approximately 23° C. and 40% RH before the number of live aphids on each plant was recorded. Insecticidal activity was measured by Corrected % Control using Abbott's correction formula and presented in Table 1: Corrected % Control=100*(X−Y)/X • where X=No. of live aphids on solvent check plants • Y=No. of live aphids on treated plants

[3] = tested on: Green Leafhopper (Nephotettix sp.); experiment: Root-uptake systemic assay on rice, green leafhopper; details: 10 ppm in water of rice seedlings, 3rd instar nymphs, mortality observed at 2 and 6 days (day of tabled value not stated)
Protocol: (§1) Insecticidal Test for Brown Planthopper (Nilaparvata lugens) and Green Leafhopper (Nephotettix sp.) A root-uptake systemic assay was performed on both brown planthopper and green leafhopper. Four-week-old rice seedlings were submerged in 3-cm depth of water in the bottom portion (high 5 cm, diameter 3 cm) of a 2-part glass cylinder (high 18 cm, diameter 3 cm). A metal screen was used to hold the seedlings within the bottom portion. Scotch tape was used to bind the two portions of the cylinder after setting up the seedlings. A metal cap was used to cover the cylinder. There were 4 cylinders for each treatment. The test compound was dissolved in acetone to make a 10,000 ppm stock solution. The stock solution was incorporated at final test concentrations of 10 ppm in the water in which rice seedlings were submerged. Five laboratory-reared 3rd instar nymphs of brown planthopper or green leafhopper were introduced into each cylinder 3 hr after insecticide application. The treated test units were kept in a growth chamber with conditions set as followings: Temperature 28±0.5° C.; Relative humidity 70±0.5%; Photoperiod […].

[4] = tested on: Brown Planthopper (Nilaparvata lugens); experiment: Root-uptake systemic assay on rice, brown planthopper; details: 10 ppm in water of rice seedlings, 3rd instar nymphs, mortality observed at 2 and 6 days (day of tabled value not stated)
Protocol: as §1

[5] = tested on: Sweet Potato Whitefly (Bemisia tabaci); experiment: Insecticidal test for sweet potato whitefly in foliar spray assay on cotton; details: live large nymphs counted 12 days after spray of egg-infested leaves
Text: Insecticidal Test for Sweet Potato Whitefly (Bemisia tabaci) in Foliar Spray Assay This test was designed to measure the capability of whitefly eggs and/or young nymphs to develop to large nymphs. Cotton seedlings at the growth stage of one or two expanding true leaf were trimmed so that only the first true leaf remained (cotyledon leaves were also removed). The plants were pre-infested with sweet potato whitefly eggs by keeping plants next to the colony-keeping plants for two days. The infested plants were carefully checked for presence of similar egg density before use in the insecticidal tests. Master solutions of test compounds at 1000 ppm were prepared in acetone: methanol (1:1). The 12.5 ppm spray solutions were then made by diluting 0.188 mL of the master solution with 14.812 ml of 0.025% Tween 20 in water. The lower concentrations were made by diluting the 12.5 ppm spray solution with a diluent consisting 98.75 parts of 0.025% Tween 20 in water and 1.25 parts of acetone:methanol (1:1). The diluent was used as solvent control. The test solutions were sprayed with a hand-held Devilbiss sprayer until runoff to both sides of the infested cotton leaves. Four plants (4 replications) were used for each treatment. Treated plants were held in a holding room for 12 days at approximately 23° C. and 40% RH before evaluation. To evaluate the efficacy of the compounds, the number of live large nymphs in an area of 1 square inch on the lower surface of the treated cotton leaves was counted under a microscope. Insecticidal activity was determined by Corrected % Control using Abbott's correction formula and presented in Table 3: Corrected % Control=100*(X−Y)/X • where X=No. of live large nymphs on solvent check plants • Y=No. of live large nymphs on treated plants

| SMILES | % Control at ppm, against green peach aphid on cabbage (foliar spray) ([1]; 0.78 ppm) | % Control at ppm, against green peach aphid on cabbage (foliar spray) ([1]; 3.13 ppm) | % Control at ppm, against green peach aphid on cabbage (foliar spray) ([1]; 12.5 ppm) | % Control at ppm, against green peach aphid on cabbage (foliar spray) ([1]; 50 ppm) | % Control at ppm, against green peach aphid on cabbage (foliar spray) ([1]; 200 ppm) | % Control at ppm, against cotton aphid on squash (foliar spray) ([2]; 0.78 ppm) | % Control at ppm, against cotton aphid on squash (foliar spray) ([2]; 3.13 ppm) | % Control at ppm, against cotton aphid on squash (foliar spray) ([2]; 12.5 ppm) | % Control at ppm, against cotton aphid on squash (foliar spray) ([2]; 50 ppm) | % Systemic Control at 10 ppm on rice, Green Leafhopper [3] | % Systemic Control at 10 ppm on rice, Brown Planthopper [4] | % Control at ppm, against sweet potato whitefly on cotton, foliar spray ([5]; 0.781 ppm) | % Control at ppm, against sweet potato whitefly on cotton, foliar spray ([5]; 3.125 ppm) | % Control at ppm, against sweet potato whitefly on cotton, foliar spray ([5]; 12.500 ppm) |
| --- | --- | --- | --- | --- | --- | --- | --- | --- | --- | --- | --- | --- | --- | --- |
| CS(=O)(=NC#N)C1(c2ccc(C(F)(F)F)nc2)CC1 (stereo not drawn) [Compound 1, methyl(oxido) {1-[6-(trifluoromethyl)pyridin-3-yl]cyclopropyl}-λ^4-sulfanylidenecyanamide] | F (Less than 50) | B (80-89) | A (90-100) | A (90-100) | A (90-100) | A (90-100) | A (90-100) | A (90-100) | A (90-100) | – | – | – | – | – |
| CS(=O)(=NC#N)C1(c2ccc(Cl)nc2)CC1 (stereo not drawn) [Compound 2, methyl(oxido) [1-(6-chloropyridin-3-yl)cyclopropyl]-λ^4-sulfanylidenecyanamide] | D (60-69) | A (90-100) | – | – | – | A (90-100) | A (90-100) | – | – | B (80-89) | E (50-59) | F (Less than 50) | E (50-59) | C (70-79) |
| CS(=O)(=NC#N)C1(c2ccc(Cl)nc2)CCC1 (stereo not drawn) [Compound 3, methyl(oxido)[1-(6-chloropyridin-3-yl)cyclobutyl]-λ^4-sulfanylidenecyanamide] | – | – | – | – | – | – | – | – | A (90-100) | – | – | – | – | – |
| CS(=O)(=NC#N)C1(c2ccc(Cl)nc2)CCCC1 (stereo not drawn) [Compound 4, methyl(oxido)[1-(6-chloropyridin-3-yl)cyclopentyl]-λ^4-sulfanylidenecyanamide] | – | – | – | – | – | – | – | – | A (90-100) | – | – | – | – | – |
| CS(=O)(=NC#N)C1(c2ccc(Cl)nc2)CCCCC1 (stereo not drawn) [Compound 5, methyl(oxido)[1-(6-chloropyridin-3-yl)cyclohexyl]-λ^4-sulfanylidenecyanamide] | – | – | – | – | – | G | A (90-100) | A (90-100) | A (90-100) | – | – | – | – | – |
| CS(=O)(=NC#N)C1(c2ccc(Cl)nc2)CCOCC1 (stereo not drawn) [Compound 6, methyl(oxido)[4-(6-chloropyridin-3-yl)tetra hydro-pyran-4-yl]-λ^4-sulfanylidenecyanamide] | G | G | G | G | A (90-100) | A (90-100) | A (90-100) | A (90-100) | A (90-100) | – | – | – | – | – |
